# Laboratory results as given in ChEMBL document CHEMBL6177961, “Structure-Based Analysis of Semisynthetic Anti-TB Rufomycin Analogues” (J Nat Prod, 2025).
# What was measured:
# [1] = Selectivity index, ratio of IC50 for cytotoxicity against African green monkey Vero cells to MIC for antimycobacterial activity against Mycobacterium tuberculosis H37Rv ATCC 27294; assay type: toxicity, cell-based; settings: read-out: Selectivity Index
# [2] = Cytotoxicity against African green monkey Vero cells; assay type: toxicity, cell-based; settings: African green monkey (Chlorocebus sabaeus)
# [3] = test system: Mycobacteroides abscessus; experiment: Antimycobacterial activity against Mycobacterium abscessus ATCC 19977 assessed as reduction in bacterial growth by microplate Alamar blue assay; assay type: functional
# [4] = test system: Mycobacterium tuberculosis; experiment: Antimycobacterial activity against Mycobacterium tuberculosis H37Rv ATCC 27294 assessed as reduction in bacterial growth by microplate alamar blue assay; assay type: functional
# [5] = Binding affinity to full length Mycobacterium tuberculosis ClpC1 assessed as dissociation constant by SPR analysis
# [6] = test system: Mycobacterium avium; experiment: Antimycobacterial activity against Mycobacterium avium assessed as reduction in bacterial growth; assay type: functional
# [7] = Binding affinity to N-terminal Mycobacterium tuberculosis ClpC1 assessed as dissociation constant by SPR analysis
SMILES,selectivity ratio [1],IC50 [2] [nM],MIC [3] [µM],MIC [4] [µM],Kd [5] [nM],MIC [6] [µM],Kd [7] [nM]
C/C=C/C[C@@H]1NC(=O)[C@H](CC(C)C)N2C=C(C)C[C@@H](C2=O)N(C)C(=O)[C@H](C)NC(=O)[C@H](Cc2ccc(O)c([N+](=O)[O-])c2)NC(=O)[C@H](CC(C)C)N(C)C(=O)[C@H](Cc2cn(C(C)(C)[C@H]3CO3)c3ccccc23)NC1=O,> 33000,> 100000,0.58,0.003,60,4.1,50
C/C=C/C[C@@H]1NC(=O)[C@H](CC(C)C)N2C=C(C)C[C@@H](C2=O)N(C)C(=O)[C@H](C)NC(=O)[C@H](Cc2ccc(O)c([N+](=O)[O-])c2)NC(=O)[C@H](CC(C)C)N(C)C(=O)[C@H](Cc2cn(C(C)(C)[C@H](O)CBr)c3ccccc23)NC1=O,> 32000,> 100000,0.57,0.003,350,1.1,260
C/C=C/C[C@@H]1NC(=O)[C@H](CC(C)C)N2C(=O)[C@H](CC(C)[C@H]2OC)N(C)C(=O)[C@H](C)NC(=O)[C@H](Cc2ccc(OC(C)=O)c([N+](=O)[O-])c2)NC(=O)[C@H](CC(C)C)N(C)C(=O)[C@H](Cc2cn(C(C)(C)[C@H]3CO3)c3ccccc23)NC1=O (stereo partly specified),> 71000,> 100000,0.13,0.001,44,0.14,40
C/C=C/C[C@@H]1NC(=O)[C@H](CC(C)C)N2C(=O)[C@H](C[C@H](C)[C@H]2OCC)N(C)C(=O)[C@H](C)NC(=O)[C@H](Cc2ccc(O)c([N+](=O)[O-])c2)NC(=O)[C@H](CC(C)C)N(C)C(=O)[C@H](Cc2cn(C(C)(C)[C@H](O)CCl)c3ccccc23)NC1=O,> 19000,> 100000,0.49,0.005,87,2.2,11
C/C=C/C[C@@H]1NC(=O)[C@H](CC(C)C)N2C(=O)[C@H](CC(C)[C@H]2OC)N(C)C(=O)[C@H](C)NC(=O)[C@H](Cc2ccc(OC)c([N+](=O)[O-])c2)NC(=O)[C@H](CC(C)C)N(C)C(=O)[C@H](Cc2cn(C(C)(C)[C@H](O)COC)c3ccccc23)NC1=O (stereo partly specified),3600,83000,0.52,0.023,40,4.5,37
C/C=C/C[C@@H]1NC(=O)[C@H](CC(C)C)N2C=C(C)C[C@@H](C2=O)N(C)C(=O)[C@H](C)NC(=O)[C@H](Cc2ccc3oc(=O)[nH]c3c2)NC(=O)[C@H](CC(C)C)N(C)C(=O)[C@H](Cc2cn(C(C)(C)[C@H](O)CCl)c3ccccc23)NC1=O,> 830,> 100000,2.3,0.12,510,> 10,430
C/C=C/C[C@@H]1NC(=O)[C@H](CC(C)C)N2C=C(C)C[C@@H](C2=O)N(C)C(=O)[C@H](C)NC(=O)[C@H](Cc2ccc(OC(=O)c3ccccc3)c([N+](=O)[O-])c2)NC(=O)[C@H](CC(C)C)N(C)C(=O)[C@H](Cc2cn(C(C)(C)[C@@H](CCl)OC(=O)c3ccccc3)c3ccccc23)NC1=O,> 220,> 100000,> 10,0.45,1100,> 10,1400
C/C=C/C[C@@H]1NC(=O)[C@H](CC(C)C)N2C(=O)[C@H](C[C@@H](C)[C@H]2OCC)N(C)C(=O)[C@H](C)NC(=O)[C@H](Cc2ccc(O)c([N+](=O)[O-])c2)NC(=O)[C@H](CC(C)C)N(C)C(=O)[C@H](Cc2cn(C(C)(C)[C@H](O)CCl)c3ccccc23)NC1=O,> 42,> 10000,1.1,0.24,140,> 10,120
